# Experimental data: patent US6737383B1, “Herbicidal oxadiazolidines” (priority 1999, dated 2004)
# Assays:
# bedstraw = assay: Test B pre/postemergence bedstraw; format: in vivo, Galium aparine; details: Preemergence
# Method in brief: (§1)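 Test chemicals in a non-phytotoxic solvent mixture with surfactant were sprayed preemergence onto planted seeds and postemergence onto plants 2 to 18 cm tall (1- to 4-leaf stage). After twelve to sixteen days in a greenhouse, injury was visually rated against untreated controls from 0 (no effect) to 10 (complete control).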
# blackgrass = assay: Test B pre/postemergence blackgrass; format: in vivo, Alopecurus myosuroides
# Method in brief: as §1
# surinam grass = assay: Test B pre/postemergence surinam grass; format: in vivo, Brachiaria decumbens
# Method in brief: as §1
# cocklebur = assay: Test B pre/postemergence cocklebur; format: in vivo, Xanthium strumarium
# Method in brief: as §1
# corn = assay: Test B pre/postemergence corn; format: in vivo, Zea mays
# Method in brief: as §1
# crabgrass = assay: Test B pre/postemergence crabgrass; format: in vivo, Digitaria sanguinalis
# Method in brief: as §1
# giant foxtail = assay: Test B pre/postemergence giant foxtail; format: in vivo, Setaria faberii
# Method in brief: as §1
# morningglory = assay: Test B pre/postemergence morningglory; format: in vivo, Ipomoea hederacea
# Method in brief: as §1
# pigweed = assay: Test B pre/postemergence pigweed; format: in vivo, Amaranthus retroflexus
# Method in brief: as §1
# rape = assay: Test B pre/postemergence rape; format: in vivo, Brassica napus
# Method in brief: as §1
# soybean = assay: Test B pre/postemergence soybean; format: in vivo, Glycine max
# Method in brief: as §1
# sugar beet = assay: Test B pre/postemergence sugar beet; format: in vivo, Beta vulgaris
# Method in brief: as §1
# velvetleaf = assay: Test B pre/postemergence velvetleaf; format: in vivo, Abutilon theophrasti
# Method in brief: as §1
# wheat = assay: Test B pre/postemergence wheat; format: in vivo, Triticum aestivum
# Method in brief: as §1
# wild oat = assay: Test B pre/postemergence wild oat; format: in vivo, Avena fatua
# Method in brief: as §1
# purple nutsedge = assay: Test B pre/postemergence purple nutsedge; format: in vivo, Cyperus rotundus
# Method in brief: as §1
# [1] = Postemergence, Rate 62 g/ha, scale of 0 to 10, 0 is no effect, 10 is complete control
# [2] = Postemergence, Rate 125 g/ha, scale 0 to 10, 0 is no effect, 10 is complete control
# [3] = Postemergence, Rate 500 g/ha, scale 0 to 10, 0 is no effect, 10 is complete control
# [4] = Preemergence, Rate 125 g/ha, scale 0 to 10, 0 is no effect, 10 is complete control
# [5] = Preemergence, Rate 500 g/ha, scale of 0 to 10 where 0 is no effect and 10 is complete control
# [6] = Rate 250 g/ha, Postemergence, scale of 0 to 10 where 0 is no effect and 10 is complete control
# [7] = Preemergence, Rate 62 g/ha, scale 0 to 10 (0 no effect, 10 complete control)
structure (smiles),measurement,setting,value
COCCOCn1c(=O)on(C(=O)N(c2ccc(Cl)cc2)C(C)C)c1=O [Compound 535],Bedstraw plant response rating,"bedstraw; Rate 62 g/ha, scale 0 to 10 (0 no effect, 10 complete control)",0
same,Bedstraw plant response rating,"bedstraw; Rate 125 g/ha, scale 0 to 10, 0 is no effect, 10 is complete control",0
same,Bedstraw plant response rating,"bedstraw; Rate 500 g/ha, scale of 0 to 10 where 0 is no effect and 10 is complete control",0
same,Blackgrass plant response rating,blackgrass; [1],0
same,Blackgrass plant response rating,blackgrass; [2],4
same,"Plant response rating, Blackgrass",blackgrass; [3],8
same,Blackgrass plant response rating,blackgrass; [4],0
same,Blackgrass plant response rating (0 to 10 scale),"blackgrass; Preemergence, Rate 250 g/ha",0
same,Blackgrass plant response rating,blackgrass; [5],0
same,"Plant response rating, Blackgrass",blackgrass; [6],7
same,B. signalgrass plant response rating,surinam grass; [1],0
same,B. signalgrass plant response rating,surinam grass; [2],0
same,"Plant response rating, B. signalgrass",surinam grass; [3],3
same,B. signalgrass plant response rating,surinam grass; [4],0
same,"B. signalgrass plant response rating (0 to 10 scale, 0 is no effect, 10 is complete control)","surinam grass; Preemergence, Rate 250 g/ha",0
same,B. signalgrass plant response rating,surinam grass; [5],0
same,"Plant response rating, B. signalgrass",surinam grass; [6],0
same,Cocklebur plant response rating,cocklebur; [1],0
same,Cocklebur plant response rating,cocklebur; [2],0
same,"Plant response rating, Cocklebur",cocklebur; [3],0
same,Cocklebur plant response rating,cocklebur; [7],0
same,Cocklebur plant response rating,cocklebur; [4],0
same,Cocklebur plant response rating (0 to 10 scale),"cocklebur; Preemergence, Rate 250 g/ha",0
same,Cocklebur plant response rating,cocklebur; [5],0
same,"Plant response rating, Cocklebur",cocklebur; [6],0
same,Corn plant response rating,corn; [1],0
same,Corn plant response rating,corn; [2],0
same,"Plant response rating, Corn",corn; [3],0
same,Corn plant response rating,corn; [7],0
same,Corn plant response rating,corn; [4],0
same,Corn plant response rating (0 to 10 scale),"corn; Preemergence, Rate 250 g/ha",0
same,Corn plant response rating,corn; [5],2
same,"Plant response rating, Corn",corn; [6],0
same,Crabgrass plant response rating,crabgrass; [1],5
same,"Plant response rating, Crabgrass",crabgrass; [3],6
same,Crabgrass plant response rating,crabgrass; [7],10
same,Crabgrass plant response rating,crabgrass; [4],10
same,Crabgrass plant response rating (0 to 10 scale),"crabgrass; Preemergence, Rate 250 g/ha",10
same,Crabgrass plant response rating,crabgrass; [5],10
same,"Plant response rating, Crabgrass",crabgrass; [6],5
same,Giant foxtail plant response rating,giant foxtail; [1],5
same,"Plant response rating, Giant foxtail",giant foxtail; [3],5
same,Giant foxtail plant response rating,giant foxtail; [7],10
same,Giant foxtail plant response rating,giant foxtail; [4],10
same,Giant foxtail plant response rating (0 to 10 scale),"giant foxtail; Preemergence, Rate 250 g/ha",10
same,Giant foxtail plant response rating,giant foxtail; [5],10
same,"Plant response rating, Giant foxtail",giant foxtail; [6],5
same,Morningglory plant response rating,morningglory; [1],4
same,Morningglory plant response rating,morningglory; [2],2
same,"Plant response rating, Morningglory",morningglory; [3],3
same,Morningglory plant response rating,morningglory; [7],0
same,Morningglory plant response rating,morningglory; [4],0
same,Morningglory plant response rating (0 to 10 scale),"morningglory; Preemergence, Rate 250 g/ha",0
same,Morningglory plant response rating,morningglory; [5],2
same,"Plant response rating, Morningglory",morningglory; [6],2
same,Redroot pigweed plant response rating,pigweed; [1],0
same,Redroot pigweed plant response rating,pigweed; [2],0
same,"Plant response rating, Redroot pigweed",pigweed; [3],0
same,Redroot pigweed plant response rating,pigweed; [7],2
same,Redroot pigweed plant response rating,pigweed; [4],2
same,Redroot pigweed plant response rating (0 to 10 scale),"pigweed; Preemergence, Rate 250 g/ha",4
same,Redroot pigweed plant response rating,pigweed; [5],4
same,"Plant response rating, Redroot pigweed",pigweed; [6],0
same,Rape plant response rating,rape; [1],0
same,Rape plant response rating,rape; [2],0
same,"Plant response rating, Rape",rape; [3],0
same,Rape plant response rating,rape; [7],2
same,Rape plant response rating,rape; [4],2
same,Rape plant response rating (0 to 10 scale),"rape; Preemergence, Rate 250 g/ha",2
same,Rape plant response rating,rape; [5],3
same,"Plant response rating, Rape",rape; [6],0
same,Soybean plant response rating,soybean; [1],3
same,Soybean plant response rating,soybean; [2],6
same,"Plant response rating, Soybean",soybean; [3],8
same,Soybean plant response rating,soybean; [7],0
same,Soybean plant response rating,soybean; [4],0
same,Soybean plant response rating (0 to 10 scale),"soybean; Preemergence, Rate 250 g/ha",0
same,Soybean plant response rating,soybean; [5],0
same,"Plant response rating, Soybean",soybean; [6],6
same,Sugarbeets plant response rating,sugar beet; [1],0
same,Sugarbeets plant response rating,sugar beet; [2],0
same,"Plant response rating, Sugarbeets",sugar beet; [3],0
same,Sugarbeets plant response rating,sugar beet; [7],4
same,Sugarbeets plant response rating,sugar beet; [4],4
same,Sugarbeets plant response rating (0 to 10 scale),"sugar beet; Preemergence, Rate 250 g/ha",5
same,"Plant response rating, Sugarbeets",sugar beet; [6],0
same,Velvetleaf plant response rating,velvetleaf; [1],0
same,Velvetleaf plant response rating,velvetleaf; [2],0
same,"Plant response rating, Velvetleaf",velvetleaf; [3],2
same,Velvetleaf plant response rating,velvetleaf; [7],0
same,Velvetleaf plant response rating,velvetleaf; [4],0
same,Velvetleaf plant response rating (0 to 10 scale),"velvetleaf; Preemergence, Rate 250 g/ha",2
same,"Plant response rating, Velvetleaf",velvetleaf; [6],0
same,Wheat plant response rating,wheat; [1],0
same,Wheat plant response rating,wheat; [2],0
same,"Plant response rating, Wheat",wheat; [3],2
same,Wheat plant response rating,wheat; [7],0
same,Wheat plant response rating,wheat; [4],0
same,Wheat plant response rating (0 to 10 scale),"wheat; Preemergence, Rate 250 g/ha",0
same,Wheat plant response rating,wheat; [5],0
same,"Plant response rating, Wheat",wheat; [6],0
same,Wild oats plant response rating,wild oat; [1],0
same,Wild oats plant response rating,wild oat; [2],0
same,"Plant response rating, Wild oats",wild oat; [3],2
same,Wild oats plant response rating,wild oat; [7],0
same,Wild oats plant response rating,wild oat; [4],0
same,Wild oats plant response rating (0 to 10 scale),"wild oat; Preemergence, Rate 250 g/ha",0
same,Wild oats plant response rating,wild oat; [5],0
same,"Plant response rating, Wild oats",wild oat; [6],0
same,Nutsedge plant response rating,purple nutsedge; [1],0
same,Nutsedge plant response rating,purple nutsedge; [2],0
same,"Plant response rating, Nutsedge",purple nutsedge; [3],0
same,Nutsedge plant response rating,purple nutsedge; [7],0
same,Nutsedge plant response rating,purple nutsedge; [4],0
same,Nutsedge plant response rating (0 to 10 scale),"purple nutsedge; Preemergence, Rate 250 g/ha",0
same,Nutsedge plant response rating,purple nutsedge; [5],0
same,"Plant response rating, Nutsedge",purple nutsedge; [6],0
